Here are results for 27 molecules from US9328099B2, “Cyanomethylpyrazole carboxamides as janus kinase inhibitors” (Merck Sharp & Dohme Corp., priority 2011, dated 2016).

In one experiment the target is JAK2 (Homo sapiens (Human), UniProt O60674). In words: Jak Biochemical HTRF Assay, JAK2. The conditions noted are these: HTRF biochemical assay, GST-tagged catalytic domain; top concentration tested […]. The text has this:
(§1) Jak Biochemical HTRF Assay Protocol
(§2) Subsequent reagent additions employed an Agilent Bravo.

The target of another experiment is JAK1 (Homo sapiens (Human), UniProt P23458). In words: Jak Biochemical HTRF Assay, JAK1. The conditions noted are these: HTRF biochemical assay, GST-tagged catalytic domain; top concentration tested […]; read-out: JAK1 IC50.
From the text: as §1, §2

Chain of JAK1 (P23458 875-1153): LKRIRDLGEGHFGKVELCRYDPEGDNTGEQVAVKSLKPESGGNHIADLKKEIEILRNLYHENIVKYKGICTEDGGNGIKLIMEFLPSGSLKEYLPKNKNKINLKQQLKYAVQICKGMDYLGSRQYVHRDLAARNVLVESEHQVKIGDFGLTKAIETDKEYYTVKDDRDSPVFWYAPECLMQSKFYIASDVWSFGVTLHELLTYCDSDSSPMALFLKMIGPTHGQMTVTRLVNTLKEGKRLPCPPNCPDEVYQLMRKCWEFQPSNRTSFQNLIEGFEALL
Chain of JAK2 (O60674 849-1124): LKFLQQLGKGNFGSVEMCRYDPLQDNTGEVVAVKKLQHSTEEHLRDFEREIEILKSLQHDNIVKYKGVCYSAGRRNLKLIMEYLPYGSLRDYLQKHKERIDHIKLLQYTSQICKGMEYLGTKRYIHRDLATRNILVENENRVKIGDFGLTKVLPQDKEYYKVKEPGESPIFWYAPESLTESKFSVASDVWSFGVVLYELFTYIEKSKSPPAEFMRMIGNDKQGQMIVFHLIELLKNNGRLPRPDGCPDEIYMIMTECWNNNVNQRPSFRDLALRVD

In the case of `Cc1cc(N2CCC(CC#N)(n3cc(C(N)=O)c(Nc4ccc(F)cc4)n3)CC2)cnc1F` [Example 3-56, 1-[4-(cyanomethyl)-1-(6-fluoro-5-methylpyridin-3-yl)piperidin-4-yl]-3-[(4-fluorophenyl)amino]-1H-pyrazole-4-carboxamide], the figures for the 50% inhibitory concentration (IC50) on JAK2 and on JAK1 were 23 nM and 1 nM, respectively.
As to `N#CCC1(n2cc(C(N)=O)c(Nc3ccnc(F)c3)n2)CCC(Nc2ccccc2Cl)CC1` (stereo not drawn) [Example 40-11, Cis or trans 1-{4-[(2-chlorophenyl)amino]-1-(cyanomethyl)cyclohexyl}-3-[(2-fluoropyridin-4-yl)amino]-1H-pyrazole-4-carboxamide], the IC50 was 7 nM on JAK2 and 0.2 nM on JAK1.
As to `CC(C)(C)OC(=O)N1CCC(CC#N)(n2cc(C(N)=O)c(Nc3ccccc3)n2)CC1` [Example 2-1, tert-Butyl 4-[4-carbamoyl-3-(phenylamino)-1H-pyrazol-1-yl]-4-(cyanomethyl)piperidine-1-carboxylate], the IC50 on JAK2 came to 27 nM; on JAK1 it was 1 nM.
Consider `CC(CO)OC(=O)N1CCC(CC#N)(n2cc(C(N)=O)c(Nc3ccc(F)cc3)n2)CC1` (stereo not drawn) [Example 31, 2-Hydroxy-1-methylethyl 4-{4-carbamoyl-3-[(4-fluorophenyl)amino]-1H-pyrazol-1-yl}-4-(cyanomethyl)piperidine-1-carboxylate], for which the IC50 was found to be 8 nM at JAK2 and 0.4 nM on JAK1.
For the molecule `N#CCC1(n2cc(C(N)=O)c(Nc3ccc(F)cc3)n2)CCN(Cc2cncc(F)c2)CC1` [Example 22-49, 1-{4-(cyanomethyl)-1-[(5-fluoropyridin-3-yl)methyl]piperidin-4-yl}-3-[(4-fluorophenyl)amino]-1H-pyrazole-4-carboxamide], the IC50 on JAK2 was 29 nM; on JAK1, 2 nM.
On to `Cc1cc(CN2CCC(CC#N)(n3cc(C(N)=O)c(Nc4ccnc(F)c4)n3)CC2)no1` [Example 22-27, 1-{4-(cyanomethyl)-1-[(5-methylisoxazol-3-yl)methyl]piperidin-4-yl}-3-[(2-fluoropyridin-4-yl)amino]-1H-pyrazole-4-carboxamide], for which the IC50 at JAK2 was 157 nM; at JAK1, 6 nM.
The like results for `N#CCC1(n2cc(C(N)=O)c(Nc3ccnc(F)c3)n2)CCC(Nc2cc(F)ccc2F)CC1` (stereo not drawn) [Example 40-10, Cis or trans 1-{1-(cyanomethyl)-4-[(2,5-difluorophenyl)amino]cyclohexyl}-3-[(2-fluoropyridin-4-yl)amino]-1H-pyrazole-4-carboxamide] were, in that order, 355 nM and 14 nM.
For the molecule `N#CCC1(n2cc(C(N)=O)c(Nc3ccnc(F)c3)n2)CCN(Cc2cccc(C#N)c2)CC1` [Example 22-62, 1-[1-(3-cyanobenzyl)-4-(cyanomethyl)piperidin-4-yl]-3-[(2-fluoropyridin-4-yl)amino]-1H-pyrazole-4-carboxamide], the results for the 50% inhibitory concentration (IC50) at JAK2 and at JAK1 were 33 nM and 0.9 nM, respectively.
For `N#CCC1(n2cc(C(N)=O)c(Nc3ccnc(F)c3)n2)CCN(Cc2ccccc2F)CC1` [Example 22-9, 1-[4-(cyanomethyl)-1-(2-fluorobenzyl)piperidin-4-yl]-3-[(2-fluoropyridin-4-yl)amino]-1H-pyrazole-4-carboxamide] the same measures were 2 nM and 0.06 nM.
The like results for `N#CCC1(n2cc(C(N)=O)c(Nc3ccc(C4CCC4)nc3)n2)CCN(C(=O)OCC(F)F)CC1` [Example 9-38, 2,2-difluoroethyl 4-{4-carbamoyl-3-[(6-cyclobutylpyridin-3-yl)amino]-1H-pyrazol-1-yl}-4-(cyanomethyl)piperidine-1-carboxylate] were, in that order, 3 nM and 0.3 nM.
Take `N#CCC1(n2cc(C(N)=O)c(Nc3ccccc3)n2)CCN(C(=O)OCc2cccnc2)CC1` [Example 30-39, pyridin-3-ylmethyl 4-[4-carbamoyl-3-(phenylamino)-1H-pyrazol-1-yl]-4-(cyanomethyl)piperidine-1-carboxylate]: the IC50 was 38 nM on JAK2 and 2 nM on JAK1.
For `Cc1cncc(N2CCC(CC#N)(n3cc(C(N)=O)c(Nc4ccc(F)cc4)n3)CC2)c1` [Example 3-48, 1-[4-(cyanomethyl)-1-(5-methylpyridin-3-yl)piperidin-4-yl]-3-[(4-fluorophenyl)amino]-1H-pyrazole-4-carboxamide] the same measures were 26 nM and 1 nM.
For `N#CCC1(n2cc(C(N)=O)c(Nc3ccnc(F)c3)n2)CCC(NCc2ccccc2Cl)CC1` (stereo not drawn) [Example 41-16, Cis or trans 1-{4-[(2-chlorobenzyl)amino]-1-(cyanomethyl)cyclohexyl}-3-[(2-fluoropyridin-4-yl)amino]-1H-pyrazole-4-carboxamide] the same measures were 912 nM and 24 nM.
As for `N#CCCCN1CCC(CC#N)(n2cc(C(N)=O)c(Nc3ccccc3)n2)CC1` [Example 21-5, 1-[4-(cyanomethyl)-1-(3-cyanopropyl)piperidin-4-yl]-3-(phenylamino)-1H-pyrazole-4-carboxamide], the figures for the IC50 against JAK2 and at JAK1 were 314 nM and 46 nM, respectively.
Turning to `N#CCC1(n2cc(C(N)=O)c(Nc3ccnc(F)c3)n2)CCN(Cc2nc3ccccc3[nH]2)CC1` [Example 22-41, 1-[1-(1H-benzimidazol-2-ylmethyl)-4-(cyanomethyl)piperidin-4-yl]-3-[(2-fluoropyridin-4-yl)amino]-1H-pyrazole-4-carboxamide], the IC50 against JAK2 was found to be 641 nM; on JAK1, 18 nM.
`Cn1cc(C(=O)N2CCC(CC#N)(n3cc(C(N)=O)c(Nc4ccnc(F)c4)n3)CC2)cn1` [Example 34-44, 1-{4-(cyanomethyl)-1-[(1-methyl-1H-pyrazol-4-yl)carbonyl]piperidin-4-yl}-3-[(2-fluoropyridin-4-yl)amino]-1H-pyrazole-4-carboxamide]: the IC50 against JAK2 was 63 nM; at JAK1 it was 2 nM.
The like results for `Cc1cccc(N2CCC(CC#N)(n3cc(C(N)=O)c(Nc4ccc(F)cc4)n3)CC2)c1F` [Example 3-43, 1-[4-(cyanomethyl)-1-(2-fluoro-3-methylphenyl)piperidin-4-yl]-3-[(4-fluorophenyl)amino]-1H-pyrazole-4-carboxamide] were, in that order, 295 nM and 10 nM.
Take `N#CCC1(n2cc(C(N)=O)c(Nc3ccnc(F)c3)n2)CCN(Cc2ccccc2)CC1` [Example 22-8, 1-[1-benzyl-4-(cyanomethyl)piperidin-4-yl]-3-[(2-fluoropyridin-4-yl)amino]-1H-pyrazole-4-carboxamide]: the IC50 against JAK2 amounted to 6 nM; at JAK1, 0.1 nM.
In the case of `CS(=O)(=O)N1CCC(CC#N)(n2cc(C(N)=O)c(Nc3ccccc3)n2)CC1` [Example 37-2, 1-[4-(cyanomethyl)-1-(methylsulfonyl)piperidin-4-yl]-3-(phenylamino)-1H-pyrazole-4-carboxamide], the IC50 was 3 nM against JAK2 and 0.4 nM at JAK1.
Regarding `N#CCC1(n2cc(C(N)=O)c(Nc3ccccc3)n2)CN(C(=O)Nc2ccc(C#N)cc2)C1` [Example 38-15, 1-{3-(cyanomethyl)-1-[(4-cyanophenyl)carbamoyl]azetidin-3-yl}-3-(phenylamino)-1H-pyrazole-4-carboxamide], the values for the IC50 against JAK2 and on JAK1 were 21 nM and 0.9 nM, respectively.
In the case of `Cc1cc(Cl)ccc1NC(=O)N1CC(CC#N)(n2cc(C(N)=O)c(Nc3ccccc3)n2)C1` [Example 38-14, 1-{1-[(4-chloro-2-methylphenyl)carbamoyl]-3-(cyanomethyl)azetidin-3-yl}-3-(phenylamino)-1H-pyrazole-4-carboxamide], the IC50 was found to be 334 nM against JAK2 and 25 nM at JAK1.
In the case of `CC(C)(C)OC(=O)N1CC(CC#N)(n2cc(C(N)=O)c(Nc3ccc(C(=O)N4CCS(=O)(=O)CC4)cc3)n2)C1` [Example 2-8, tert-butyl 3-[4-carbamoyl-3-({4-[(1,1-dioxidothiomorpholin-4-yl)carbonyl]phenyl}amino)-1H-pyrazol-1-yl]-3-(cyanomethyl)azetidine-1-carboxylate], the IC50 on JAK2 was determined as 5 nM; at JAK1 it was 2 nM.
Turning to `Cn1nccc1CN1CCC(CC#N)(n2cc(C(N)=O)c(Nc3ccnc(F)c3)n2)CC1` [Example 22-29, 1-{4-(cyanomethyl)-1-[(1-methyl-1H-pyrazol-5-yl)methyl]piperidin-4-yl}-3-[(2-fluoropyridin-4-yl)amino]-1H-pyrazole-4-carboxamide], the IC50 against JAK2 was 37 nM; on JAK1, 2 nM.
For the molecule `CC(C)(C)OC(=O)N1CCC(CC#N)(n2cc(C(N)=O)c(Nc3ccccn3)n2)CC1` [Example 13-3, tert-butyl 4-(4-carbamoyl-3-(pyridin-2-ylamino)-1H-pyrazol-1-yl)-4-(cyanomethyl)piperidine-1-carboxylate], the values for the IC50 on JAK2 and on JAK1 were 466 nM and 8 nM, respectively.
Take `N#CCC1(n2cc(C(N)=O)c(Nc3cccc(-c4cc[nH]n4)c3)n2)CCN(C(=O)OCC(F)(F)F)CC1` [Example 10-4, 2,2,2-trifluoroethyl 4-(3-(3-(1H-pyrazol-3-yl)phenylamino)-4-carbamoyl-1H-pyrazol-1-yl)-4-(cyanomethyl)piperidine-1-carboxylate]: the IC50 at JAK2 worked out at 29 nM; at JAK1, 0.4 nM.
The like results for `COc1ccc(C)cc1NC(=O)N1CC(CC#N)(n2cc(C(N)=O)c(Nc3ccccc3)n2)C1` [Example 38-25, 1-{3-(cyanomethyl)-1-[(2-methoxy-5-methylphenyl)carbamoyl]azetidin-3-yl}-3-(phenylamino)-1H-pyrazole-4-carboxamide] were, in that order, 168 nM and 18 nM.
The like results for `N#CCC1(n2cc(C(N)=O)c(Nc3ccnc(F)c3)n2)CCC(N2CC(F)C2)CC1` (stereo not drawn) [Example 40-82, Cis or trans 1-[1-(cyanomethyl)-4-(3-fluoroazetidin-1-yl)cyclohexyl]-3-[(2-fluoropyridin-4-yl)amino]-1H-pyrazole-4-carboxamide] were, in that order, 444 nM and 26 nM.
